Converted amounts (≈) assume the structure as drawn.
Experiments:
K562 = assay: Growth inhibition of sensitive and drug-resistant cell lines (IC50), K562; type: cell-based; settings: Homo sapiens; K562 cells
Description: (§1) The human lung cancer cell H1299 and H446, glioma cell U251 and U87MG, and human hepatic cellular cancer Bel-7402 cell in logarithmic growth phase were digested with pancreatic enzyme, and then suspended into DMEM or RPMI1640 containing 10% fetal bovine serum. The leukemic cells Kasumi-1 need no digestion, and were suspended into RPMI1640 containing 10% fetal bovine serum directly after centrifugalization. The cell density was adjusted to 1×10^4 cells/ml through cell counting, and the cell suspensions were seeded into a 96-well plate respectively, 100 μl/well, totally 6 groups of cells. The adherent cells were cultured overnight, the suspended cells were added different concentration gradients of dimeric phthalide compounds (S1-S6) directly, n=6 for each concentration of a single agent. The final volume was 200 ul, and the balance was supplemented with the culture medium. The plate was then incubated for 68 hours in 37° C., saturated humidity, 5% CO2 cell incubator. The medium was aspirated and 72 μl/well fresh culture medium was added. 8 μl […] (CCK-8) was added into each well and cultured for 2 hours. The absorbance was measured at 450 nm. The results were calculated as the 50% inhibiting drug concentration, i.e. IC50, using Sigmoidal simulation function by software Origin 7.0.
(§2) The cancer cells (various cell lines as shown in table 1 or FIG. 3) were seeded 1×10^3 cells per well into a 96-well plate. The suspended cells were added different concentration of dimeric phthalide compounds (S1-S6) directly, and the adherent cells were cultured overnight and added different concentration of dimeric phthalide compounds (S1-S6). The different concentration of dimeric phthalide compounds were divided into 10 groups: 0, 0.1, 0.5, 1, 5, 10, 20, 40, 80, 160 μg/ml, n=6 for each concentration.
(§3) According to the method described in Example 2, […] was detected and IC50 was calculated. The experiment was repeated for 3 times.
(§4) The growth inhibition effects of dimers of S1-S6 on its sensitive cell lines as well as the drug-resistant sub-strains (IC50 (μg/ml)) were shown in table 1 and FIG. 3.

K562/Adr = assay: Growth inhibition of sensitive and drug-resistant cell lines (IC50), K562/Adr; type: cell-based; settings: Homo sapiens; K562/Adr drug-resistant cells
Source text: (§5) HL-60/ADR, MCF-7/ADR, K562/ADR, Bel-7402/5-FU, KBV200, SMMC-7721/Adr were respectively chemotherapeutics Adriamycin (ADR), 5-Fluorouracil (5-FU) or vincristine (VCR) drug-resistant sub-stains of HL-60, MCF-7, K562, Bel-7402, KB, SMMC-7721 cells (all from Chinese Academy of Medical Sciences). NB4-R2 was all trans-retinoic acid (ATRA) drug-resistant sub-stain (from Pathophysiology Research Department of Shanghai JiaoTong University). The main drug-resistance mechanism of K562/ADR was high expression of P-glycoprotein (P-gp), along with increased expression of Bcl-2. In addition to high expression of P-gp, the drug-resistance mechanism of MCF-7/ADR also related to the high expression of Breast Cancer Resistant Protein (BCRP). The main drug-resistance mechanism of HL-60/ADR was high expression of Multidrug Resistance Protein 1 (MRP1), along with high expression of Bcl-2, Bcl-xL. […] The main drug-resistance mechanism of KBV200 was high expression of P-gp and its increased activity. The drug-resistance mechanism of NB4-R2 on ATRA was mutation in the RAR gene locus.
as §1, §2, §3, §4

KB [1] = assay: Growth inhibition of sensitive and drug-resistant cell lines (IC50), KB; type: cell-based; settings: Homo sapiens; KB cells, Table 1
Description: (§6) In the following Examples, the cell lines used were H1299, H446 (human lung cancer cell line), KB (human oral cavity carcinoma cell line), NB4, HL-60 (human leukemic cell line), U251 ? U87MG (human glioblastoma cell line), MCF-7 (human breast carcinoma cell line), Bel-7402 and SMMC7721 (human hepatic cellular cancer cell line), SW620 (human colon carcinoma cell line), HDF (human dermis fibroblast), HUVEC (human umbilical vein endothelial cell line) and Kasumi-1 (human acute myeloid leukaemia cell line), all from American Type Culture Collection (ATCC).
as §1, §2, §3, §4

KBv200 = assay: Growth inhibition of sensitive and drug-resistant cell lines (IC50), KBv200; type: cell-based; settings: Homo sapiens; KBv200 drug-resistant cells
Source text: as §5, §1, §2, §3, §4

MCF-7 = assay: Growth inhibition of sensitive and drug-resistant cell lines (IC50), MCF-7; type: cell-based; settings: Homo sapiens, MCF7; MCF-7 cells
Description: as §6, §1, §2, §3, §4

MCF-7/Adr = assay: Growth inhibition of sensitive and drug-resistant cell lines (IC50), MCF-7/Adr; type: cell-based; settings: Homo sapiens, NCI/ADR-RES; MCF-7/Adr drug-resistant cells
Source text: as §5, §1, §2, §3, §4

Bel-7402 [2] = assay: Growth inhibition of sensitive and drug-resistant cell lines (IC50), Bel-7402; type: cell-based; settings: Homo sapiens; Bel-7402 cells, Table 1
Description: as §6, §1, §2, §3, §4

Bel-7402/5-Fu = assay: Growth inhibition of sensitive and drug-resistant cell lines (IC50), Bel-7402/5-Fu; type: cell-based; settings: Homo sapiens, Bel7402/5-FU; Bel-7402/5-Fu drug-resistant cells
Source text: as §5, §1, §2, §3, §4

SMMC-7721 = assay: Growth inhibition of sensitive and drug-resistant cell lines (IC50), SMMC-7721; type: cell-based; settings: Homo sapiens; SMMC-7721 cells
Description: as §6, §1, §2, §3, §4

SMMC-7721/Adr = assay: Growth inhibition of sensitive and drug-resistant cell lines (IC50), SMMC-7721/Adr; type: cell-based; settings: Homo sapiens; SMMC-7721/Adr drug-resistant cells
Source text: as §5, §1, §2, §3, §4

HUVEC = assay: Vascular endothelial cell inhibition assay (CCK-8), HUVEC; type: cell-based; settings: Homo sapiens, 72 h
Description: (§7) 2×10^3 cells were seeded into a 96-well plate and cultured for 24 h. S1-S6 of different concentrations (0, 0.01, 0.1, 0.5, 1, 2.5, 5, 10, 20, 40, 80, 160 μg/ml, respectively) were added and incubated for 72 h, n=6 for each concentration. The inhibition of cell proliferation was detected by CCK-8 assay, the results were calculated as IC50, as describe in Example 3.

HDF = assay: Vascular endothelial cell inhibition assay (CCK-8), HDF; type: cell-based; settings: Homo sapiens, 72 h
Description: as §7

KB [3] = assay: Vascular endothelial cell inhibition assay (CCK-8), KB; type: cell-based; settings: Homo sapiens, 72 h, CCK-8, Table 2
Description: as §7

Bel-7402 [4] = assay: Vascular endothelial cell inhibition assay (CCK-8), Bel-7402; type: cell-based; settings: Homo sapiens, 72 h, CCK-8, Table 2
Description: as §7

[5] = tested on: secretion of VEGF in H1299 cell; assay: VEGF in supernatant of tumor cell H1299 culture (VEGF-ELISA); type: cell-based, human; settings: H1299, compound 5 μg/ml, 24 h; for inhibition at 5 µg/mL: Homo sapiens, NCI-H1299, read-out: Inhibition rate of VEGF secretion
Description: Assay of vascular endothelial cell growth factor (VEGF) in supernatant of tumor cell H1299 culture. The cell was seeded into a 24-well plate (n=3 for each sample). H1299 cell was treated with S1-S6 respectively and cultured for 24 h. The culture supernatants from each group were collected and operated according to the instruction of VEGF-ELISA kit (JIN MEI Corporation). The samples were added, incubated, washed and detected at 450 nm for OD values of each sample. The standard curve was obtained by using different dose of VEGF standards and the secretory volume of VEGF in the supernatant was calculated.

[6] = tested on: drug-resistant cells of different mechanisms and sensitive cells; assay: Overcome drug resistance: efficacy on drug-resistant cells compared with sensitive cells; type: cell-based, human; settings: table 1 and FIG. 3
Description: as §2, §3

[7] = tested on: U87MG, H1299 and HL-60 heterograft tumors; assay: Inhibition of the growth of nude mouse heterograft tumors; type: in vivo, Balb/c male nude mice; settings: FIG. 9; for tumor inhibition effect: intraperitoneal, S4 25 mg/kg, S6 30 mg/kg, S1 32 mg/kg, BP 250 mg/kg, 4 weeks
Description: Experimental grouping: Balb/c male nude mice were used, each weighted 18-22 g, and three assays were performed. The mice were seeded with U87MG, H1299 and HL-60 respectively. The animals were divided into three groups for each experiment, one as control, one was administered with the dimeric phthalide compounds, and one was administered with monomers of phthalide compound, 6 animals for each group.
For the group which was administered with monomers of phthalide compound, we used n-butylidenephthalide (BP) (Sigma) as active ingredient for tumor suppression, the compound had the structure as follows:
Experimental Process The H1299, HL-60 or U87MG cells growing in logarithmic phase were used. […] When the tumors had gown into 0.1-0.5 cm^3 (about 7-10 days), the animals were intraperitoneal injected with the dimeric phthalide compound S4 (25 mg/kg), S6 (30 mg/kg), S1 (32 mg/kg), each 200 μl; for the group of monomers of phthalide compound, the mice were intraperitoneal injected with n-butylidenephthalide (250 mg/kg); the control group was administered with equal volume of vehicle. The animals were sacrificed after 4 weeks, and the subcutaneous tumors were separated. Photographs were taken (FIG. 9A) and the tumors were weighted (FIG. 9B).

| SMILES | IC50 (K562) [mg/L] | IC50 (K562/Adr) [mg/L] | IC50 (KB [1]) [mg/L] | IC50 (KBv200) [mg/L] | IC50 (MCF-7) [mg/L] | IC50 (MCF-7/Adr) [mg/L] | IC50 (Bel-7402 [2]) [mg/L] | IC50 (Bel-7402/5-Fu) [mg/L] | IC50 (SMMC-7721) [mg/L] | IC50 (SMMC-7721/Adr) [mg/L] | IC50 (HUVEC) [mg/L] | IC50 (HDF) [mg/L] | IC50 (KB [3]) [mg/L] | IC50 (Bel-7402 [4]) [mg/L] | Supernatant VEGF [5] [ng/ml/10^6 cells] | inhibition at 5 µg/mL [5] [%] | efficacy on drug-resistant cells compared with sensitive cells [6] | tumor inhibition effect [7] | dose needed to reach similar effects compared with the dimeric phthalide compound [7] [folds] |
| --- | --- | --- | --- | --- | --- | --- | --- | --- | --- | --- | --- | --- | --- | --- | --- | --- | --- | --- | --- |
| CCC/C=C1\OC(=O)C2=C1CCC1C2C2(OC(=O)c3ccccc32)[C@@H]1CCC (some centres unmarked) [S2] | 18.4 ± 1.02 (≈ 48.7 µM) | 20.4 ± 1.53 (≈ 54 µM) | 15.8 ± 1.25 (≈ 41.7 µM) | 16.4 ± 1.98 (≈ 43.2 µM) | 25.6 ± 2.01 (≈ 67.7 µM) | 29.4 ± 2.8 (≈ 77.8 µM) | 27.9 ± 2.54 (≈ 73.6 µM) | 29.7 ± 1.99 (≈ 78.4 µM) | 37.9 ± 2 (≈ 100 µM) | 38.3 ± 1.87 (≈ 101 µM) | 4.76 (≈ 12.6 µM) | 83.2 (≈ 220 µM) | 37.8 (≈ 99.9 µM) | 25.6 (≈ 67.7 µM) | 245.71 ± 34.27 | 34.2 | – | – | – |
| CCC/C=C1\OC(=O)C2=CC3CC[C@]21C1C2=C(CC[C@@H]31)C(CCCC)OC2=O (some centres unmarked) [S5] | 18.4 ± 0.87 (≈ 48.2 µM) | 18.3 ± 0.762 (≈ 47.9 µM) | 16.4 ± 2.05 (≈ 42.9 µM) | 19.8 ± 1.05 (≈ 51.8 µM) | 28.5 ± 1.91 (≈ 74.6 µM) | 29.2 ± 2.14 (≈ 76.4 µM) | 30.2 ± 2.17 (≈ 79 µM) | 28.1 ± 4.02 (≈ 73.4 µM) | 36 ± 3.92 (≈ 94.2 µM) | 35.2 ± 2.33 (≈ 92.1 µM) | 4.04 (≈ 10.6 µM) | 75.8 (≈ 198 µM) | 36 (≈ 94.1 µM) | 29.7 (≈ 77.6 µM) | 236.32 ± 24.02 | 36.7 | – | – | – |
| CCC/C=C1\OC(=O)C2=C1CCC1C2C2(OC(=O)C3=C2CCC=C3)C1(C)CCC (centres unmarked) [S6] | 10.3 ± 0.597 (≈ 26.2 µM) | 11.8 ± 0.995 (≈ 29.9 µM) | 13 ± 2.5 (≈ 32.9 µM) | 12.2 ± 2.15 (≈ 31 µM) | 22.4 ± 2.03 (≈ 56.9 µM) | 24.5 ± 2.09 (≈ 62.1 µM) | 22.6 ± 3.01 (≈ 57.3 µM) | 24 ± 2.66 (≈ 60.8 µM) | 24 ± 1.87 (≈ 60.8 µM) | 23 ± 2.76 (≈ 58.2 µM) | 4.27 (≈ 10.8 µM) | 136 (≈ 344 µM) | 26.3 (≈ 66.6 µM) | 30 (≈ 76.1 µM) | 237.25 ± 22.38 | 36.4 | the best effect | significant tumor inhibition effects | – |
| CCC/C=C1\OC(=O)c2ccccc21 [BP, n-butylidenephthalide, reference compound] | – | – | – | – | – | – | – | – | – | – | – | – | – | – | – | – | – | some inhibition effects | ≥ 10 |
| CCC/C=C1\OC(=O)C2=C1CCC1[C@H]2C23C=CCC[C@@H]2C1(C(=O)CCC)OC3=O (single isomer, unassigned) [S3] | 17.4 ± 2.06 (≈ 44 µM) | 19.2 ± 1.71 (≈ 48.3 µM) | 19 ± 1.91 (≈ 48 µM) | 20.4 ± 2.6 (≈ 51.6 µM) | 32.1 ± 3.21 (≈ 81 µM) | 34 ± 3.06 (≈ 85.7 µM) | 28.1 ± 3.96 (≈ 70.9 µM) | 29.3 ± 2.3 (≈ 74 µM) | 25.4 ± 2 (≈ 64.1 µM) | 26.7 ± 2.6 (≈ 67.3 µM) | 5.99 (≈ 15.1 µM) | 98.7 (≈ 249 µM) | 18.9 (≈ 47.7 µM) | 44.3 (≈ 112 µM) | 268.7 ± 36.13 | 28 | – | – | – |

Reference: US8247444B2, “Anti-tumor effect of dimeric phthalide compound” (priority 2007, dated 2012)
